Test [1] deals with NK-1 receptor (foot tapping induced by NK-1 agonist GR73632). As to the kind of experiment: Gerbil Foot-Tapping (Assay 2). It is filed as in vivo, Mongolian gerbil. Conditions: Meriones unguiculatus, iv. An excerpt:
CNS-penetrant NK-1 receptor antagonists for use in the present invention can be identified by their ability to inhibit foot tapping in gerbils induced by anxiogenic agents (such as pentagastrin) or central infusion of NK-1 receptor agonists such as GR73632, or caused by aversive stimulation such as foot shock or single housing, based on the method of Rupniak & Williams, Eur. J. Pharmacol., 1994, 265, 179.
Male or female Mongolian gerbils (35-70 g) are anaesthetised by inhalation of an isoflurane/oxygen mixture to permit exposure of the jugular vein in order to permit administration of test compounds or vehicle in an injection volume of 5 ml/kg i.v. Alternatively, test compounds may be administered orally or by subcutaneous or intraperitoneal routes. A skin incision is then made in the midline of the scalp to expose the skull.

Test [2] concerns separation-induced vocalisations by guinea-pig pups. In words: animal or person. Conditions: Cavia porcellus, po, 4 h, read-out: guinea-pig vocalisation (4 hr. pre-treatment): ID50. Here is the method:
Male and female guinea-pigs pups are housed in family groups with their mothers and littermates throughout the study. Experiments are commenced after weaning when the pups are 2 weeks old. Before entering an experiment, the pups are screened to ensure that a vigorous vocalisation response is reproducibly elicited following maternal separation. The pups are placed individually in an observation cage (55 cm×39 cm×19 cm) in a room physically isolated from the home cage for 15 minutes and the duration of vocalisation during this baseline period is recorded. […] On test days each pup receives an oral dose or an s.c. or i.p. injection of test compound or vehicle and is then immediately returned to the home cage with its mother and siblings for 30 to 60 minutes (or for up to 4 hours following an oral dose, dependent upon the oral pharmacokinetics of the test compound) before social isolation for 15 minutes as described above. […] Between 6 and 8 animals receive each test compound at each dose tested.

Consider 1 molecule from patent US5925627A, “Use of NK-1 receptor antagonists for treating movement disorders” (Merck Sharp & Dohme Ltd., priority 1996, dated 1999).

Like-named read-outs stand apart in the source and are kept apart here.

Consider `C[C@@H](O[C@H]1OCCN(Cc2n[nH]c(=O)[nH]2)[C@H]1c1ccc(F)cc1)c1cc(C(F)(F)F)cc(C(F)(F)F)c1` [2-(R)-(1-(R)-(3,5-bis(trifluoromethyl)phenyl)-ethoxy)-3-(S)-(4-fluorophenyl)-4-(3-(5-oxo-1H, 4H-1,2,4-triazolo)methyl)-morpholine], for which the ED50 in test [1] (5 min, i.v. immediately prior to GR73632 challenge, read-out: gerbil foot-tapping (5 mins.): ID50) amounted to 0.36 mg/kg; in test [1] (24 hrs., i.v. 24 hours prior to central NK1 agonist challenge, read-out: gerbil foot-tapping (24 hrs.): ID50), 0.33 mg/kg; in test [2], 0.73 mg/kg.
